Experimental data: publication PMC11695631 (Nature Communications, 2025)

Biological target: Vesicular monoamine transporter 2 (VMAT2) (Homo sapiens, UniProt Q05940)
Test: cryo-EM structure at […] Å
Format: cell-based

Chain of Vesicular monoamine transporter 2 (VMAT2) (Q05940 12-514): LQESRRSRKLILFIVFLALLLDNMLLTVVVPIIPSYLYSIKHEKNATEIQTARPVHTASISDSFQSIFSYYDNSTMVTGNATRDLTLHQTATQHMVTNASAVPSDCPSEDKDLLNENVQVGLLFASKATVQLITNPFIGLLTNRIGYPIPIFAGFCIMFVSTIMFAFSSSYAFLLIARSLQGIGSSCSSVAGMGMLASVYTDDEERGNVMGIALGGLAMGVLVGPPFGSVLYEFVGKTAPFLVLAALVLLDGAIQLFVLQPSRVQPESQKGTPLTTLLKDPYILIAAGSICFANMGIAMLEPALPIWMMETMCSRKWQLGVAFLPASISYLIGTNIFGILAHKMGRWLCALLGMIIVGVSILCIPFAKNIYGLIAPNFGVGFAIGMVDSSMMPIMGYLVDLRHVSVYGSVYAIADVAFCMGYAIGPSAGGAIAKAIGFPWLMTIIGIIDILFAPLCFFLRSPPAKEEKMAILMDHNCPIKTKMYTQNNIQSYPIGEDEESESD

## COc1cc2c(cc1OC)C1CC(=O)C(CC(C)C)CN1CC2 (stereo not shown) [TBZ, tetrabenazine]
  IC50: 0.0204 ± 0.0041 µM
